From the CheMixHub ionic liquid set
± gives the uncertainty stated by the source.

Experiment: xn = mol fraction of the nth substance listed
Details: 298.15 K, 101 kPa

O=C([O-])CC(O)(CC(=O)[O-])C(=O)[O-].[Na+].[Na+].[Na+] + CCCCCCCCCCCC[N+](C)(C)C.[Br-] + O
Details | electrical conductivity [S/m]
x1 = 0.0001801, x2 = 6.99e-05 | 0.2684 ± 0.0005
x1 = 0.0001801, x2 = 7.929e-05 | 0.2719 ± 0.0005
x1 = 0.0001801, x2 = 8.85e-05 | 0.2754 ± 0.0006
x1 = 0.0001801, x2 = 9.753e-05 | 0.2789 ± 0.0006
x1 = 0.0001801, x2 = 0.0001069 | 0.2823 ± 0.0006
x1 = 0.0001801, x2 = 0.0001161 | 0.2857 ± 0.0006
x1 = 0.0001801, x2 = 0.0001253 | 0.2892 ± 0.0006
x1 = 0.0001801, x2 = 0.0001344 | 0.2925 ± 0.0006
x1 = 0.0001801, x2 = 0.0001434 | 0.2957 ± 0.0006
x1 = 0.0001801, x2 = 0.0001524 | 0.2987 ± 0.0006
x1 = 0.0001801, x2 = 0.0001611 | 0.3009 ± 0.0006
x1 = 0.0001801, x2 = 0.0001696 | 0.3029 ± 0.0006
x1 = 0.0001801, x2 = 0.0001784 | 0.3047 ± 0.0006
x1 = 0.0001801, x2 = 0.0001916 | 0.3068 ± 0.0006
x1 = 0.0001801, x2 = 0.0002048 | 0.3082 ± 0.0006
x1 = 0.0001801, x2 = 0.0002178 | 0.3097 ± 0.0006
x1 = 0.0001801, x2 = 0.0002306 | 0.311 ± 0.0006
x1 = 0.0001801, x2 = 0.0002434 | 0.3121 ± 0.0006
x1 = 0.0001801, x2 = 0.0002561 | 0.3132 ± 0.0006
x1 = 0.0001801, x2 = 0.0002685 | 0.3143 ± 0.0006
x1 = 0.0001801, x2 = 0.000281 | 0.3154 ± 0.0006
x1 = 0.0001801, x2 = 0.0002933 | 0.3165 ± 0.0006
x1 = 0.0001801, x2 = 0.0003055 | 0.3176 ± 0.0006
x1 = 0.0001802, x2 = 0 | 0.2438 ± 0.0005
x1 = 0.0001802, x2 = 3.07e-06 | 0.2445 ± 0.0005
x1 = 0.0001802, x2 = 6.32e-06 | 0.2456 ± 0.0005
x1 = 0.0001802, x2 = 1.391e-05 | 0.2483 ± 0.0005
x1 = 0.0001802, x2 = 2.348e-05 | 0.2516 ± 0.0005
x1 = 0.0001802, x2 = 3.251e-05 | 0.2548 ± 0.0005
x1 = 0.0001802, x2 = 4.154e-05 | 0.258 ± 0.0005
x1 = 0.0001802, x2 = 5.076e-05 | 0.2614 ± 0.0005
x1 = 0.0001802, x2 = 6.015e-05 | 0.2648 ± 0.0005
x1 = 0.001798, x2 = 0.000148 | 1.558 ± 0.003
x1 = 0.001798, x2 = 0.0001666 | 1.562 ± 0.003
x1 = 0.001798, x2 = 0.0001847 | 1.565 ± 0.003
x1 = 0.001798, x2 = 0.0002029 | 1.569 ± 0.003
x1 = 0.001798, x2 = 0.0002206 | 1.573 ± 0.003
x1 = 0.001798, x2 = 0.0002383 | 1.576 ± 0.003
x1 = 0.001798, x2 = 0.0002559 | 1.579 ± 0.003
x1 = 0.001798, x2 = 0.000273 | 1.582 ± 0.003
x1 = 0.001798, x2 = 0.0002898 | 1.585 ± 0.003
x1 = 0.001798, x2 = 0.0003068 | 1.588 ± 0.003
x1 = 0.001798, x2 = 0.0003234 | 1.591 ± 0.003
x1 = 0.001798, x2 = 0.0003396 | 1.594 ± 0.003
x1 = 0.001798, x2 = 0.0003558 | 1.597 ± 0.003
x1 = 0.001798, x2 = 0.0003717 | 1.599 ± 0.003
x1 = 0.001798, x2 = 0.0003855 | 1.602 ± 0.003
x1 = 0.001798, x2 = 0.0004015 | 1.604 ± 0.003
x1 = 0.001798, x2 = 0.000417 | 1.607 ± 0.003
x1 = 0.001798, x2 = 0.000448 | 1.611 ± 0.003
x1 = 0.001799, x2 = 0 | 1.541 ± 0.003
x1 = 0.001799, x2 = 6.09e-06 | 1.538 ± 0.003
x1 = 0.001799, x2 = 1.458e-05 | 1.538 ± 0.003
x1 = 0.001799, x2 = 2.214e-05 | 1.539 ± 0.003
x1 = 0.001799, x2 = 2.989e-05 | 1.54 ± 0.01
x1 = 0.001799, x2 = 4.188e-05 | 1.542 ± 0.003
x1 = 0.001799, x2 = 5.738e-05 | 1.543 ± 0.003
x1 = 0.001799, x2 = 7.288e-05 | 1.544 ± 0.003
x1 = 0.001799, x2 = 9.225e-05 | 1.547 ± 0.003
x1 = 0.001799, x2 = 0.0001101 | 1.55 ± 0.01
x1 = 0.001799, x2 = 0.0001291 | 1.554 ± 0.003
